{"source": "paper PMC3845832", "about": "(Clinical cancer research : an official journal of the …, 2013)", "key": {"[1]": {"assay": "clinical", "conditions": "human, in vivo"}, "[2]": {"test_system": "CLL patients", "assay": "Population PK-PD logistic regression model of TLS probability in Cycle 1", "conditions": "linear function, day 1 or 8; p<0.01 for significance"}, "[3]": {"test_system": "UGT1A9", "conditions": "in vitro; cited from earlier work"}, "[4]": {"test_system": "refractory CLL patients", "conditions": "pharmacokinetically guided dosing, cited from earlier work"}, "[5]": {"test_system": "CLL patients", "conditions": "human, in vivo"}, "[6]": {"test_system": "CLL patients", "assay": "Tumor lysis syndrome", "type": "in vivo, human"}, "[7]": {"test_system": "CLL patients", "conditions": "cited from earlier work"}, "[8]": {"assay": "Dinaciclib clearance pathways", "conditions": "unpublished data"}, "[9]": {"test_system": "UGT1A1 or UGT1A4", "conditions": "in vitro; cited from earlier work"}}, "note": "Read-outs that look alike come from different tables or passages of the source."}
{"compound": "flavopiridol glucuronide [flavo-G]", "values": [{"measurement": "AUC, median value", "setting": "[1]", "result": 13600, "unit": "ng·h/mL"}, {"measurement": "AUC, range", "setting": "[1]", "result": "3210 to 141000", "unit": "ng·h/mL"}, {"measurement": "Exposure (Cmax or AUC) as predictor of TLS in the model", "setting": "[2]", "result": "significant decrease in OFV"}]}
{"compound": "CN1CC[C@H](c2c(O[C@@H]3O[C@H](C(=O)O)[C@@H](O)[C@H](O)[C@H]3O)cc(O)c3c(=O)cc(-c4ccccc4Cl)oc23)[C@H](O)C1", "note": "[Flavo-7-G, 7-O-β-glucopyranuronosyl-flavopiridol]", "values": [{"measurement": "Share of glucuronidation product", "setting": "[3]", "result": 98.5, "unit": "%"}]}
{"compound": "CN1CC[C@H](c2c(O)cc(O)c3c(=O)cc(-c4ccccc4Cl)oc23)[C@H](O)C1", "note": "[flavopiridol]", "values": [{"measurement": "Patients achieving objective responses", "setting": "[4]; phase I trial", "result": 40, "unit": "%"}, {"measurement": "Patients achieving objective responses", "setting": "[4]; phase II trial", "result": 53, "unit": "%"}, {"measurement": "Exposure (Cmax or AUC) as predictor of TLS in the model", "setting": "[5]", "result": "did not improve the model"}, {"measurement": "Patients who had TLS in the first cycle", "setting": "[6]; 111 patients of phase I and II studies", "result": 43, "unit": "%"}, {"measurement": "Number of patients having TLS", "setting": "[6]; Day 1, Cycle 1", "result": 25}, {"measurement": "Patients in whom TLS (dose-limiting toxicity) was observed", "setting": "[7]; two trials, pharmacokinetically guided dosing regimen", "result": "53 out of 116"}, {"measurement": "Lower CL in females compared to males", "setting": "[1]; both", "result": 12.3, "unit": "%"}, {"measurement": "Vd", "setting": "[1]", "result": 75.8, "unit": "L"}, {"measurement": "clearance", "setting": "[1]; iv", "result": 568, "unit": "mL/min"}]}
{"compound": "CCc1cnn2c(NCc3ccc[n+]([O-])c3)cc(N3CCCC[C@H]3CCO)nc12", "note": "[dinaciclib]", "values": [{"measurement": "TLS in treated CLL patients", "setting": "[7]", "result": "observed"}, {"measurement": "Role of glucuronidation in clearance", "setting": "[8]", "result": "clearly important"}]}
{"compound": "CN1CCC(c2c(O)cc(O[C@@H]3O[C@H](C(=O)O)[C@@H](O)[C@H](O)[C@H]3O)c3c(=O)cc(-c4ccccc4Cl)oc23)C(O)C1", "note": "(stereo partly drawn) [Flavo-5-G, 5-O-β-glucopyranuronosyl-flavopiridol]", "values": [{"measurement": "Share of glucuronidation product", "setting": "[9]", "result": "minor glucuronidation product"}]}
